Assay results taken from patent US4788217A, “Pesticidal carbamates” (priority 1984, dated 1988).
Where two headings read alike, the source gives them in different places.

How the values were obtained:
[1] = system: bean beetle (Acanthoscalides obtectus); experiment: Pesticidal effect on bean beetle, treated filter paper discs (Example 15, Table I); assay type: in vivo; conditions: 24 hours, killed and paralysed
Method: From the compounds of the present invention a series of dilution is prepared in acetone; concentration 1, 0.2, 0.04, 0.008 and 0.0016%, respectively. The solutions thus obtained (0.5 ml) are poured dropwise onto Whatman No. 1. filter paper discs (diameter 90 mm) placed in Petri-dishes. After the solvent has evaporated 1-2 weeks' old bean beetle (Acanthoscalides obtectus) images are placed into the Petri-dishes. 3 replicates (10-15 insects each) are used for each concentration. The pesticidal effect of the test compounds is evaluated after 24 hours, on the basis of the percental ratio of the killed and paralysed individuals.

[2] = system: house fly (Musca domestica); experiment: Insecticidal activity on house fly, treated filter paper discs (Example 16, Table II); assay type: in vivo; set-up: mortality: concentration or dose not given beside the values
Method: From the test compounds a series of dilution disclosed in Example 15 is prepared whereupon 3-5 days' old house fly (Musca domestica) images being under slight carbon dioxide narcosis are placed onto the infected treated filter paper discs. Three replicates ([…] each) are used for each concentration. The insecticidal activity of the test compounds and that of the referent compounds is evaluated after 24 hours on the basis of the percental ratio of the killed and paralyzed flies. In the solvent control grop there was no mortality.

[3] = system: small American flour-beetle (Tribolium confusum) larvae; experiment: Insecticidal effect on flour-beetle larvae, application onto dorsal cuticulum (Example 17, Table III); conditions: topical, 96 h
Method: From the 2,3-dihydro-2,2-dimethyl-7-benzofuranyl-N-methyl-N-(N'-morpholinomethyl)-carbamate, dioxacarb and carbofuran series of dilutions are prepared in acetone: the active ingredient content of the solutions amounts to 40.5, 13.5, 4.5, 1.5, 0.5, 0.16 and 0.05 […] per […], respectively. The solutions (0.5 μl) are applied with the aid of a Hamilton syringe onto the dorsal cuticulum of small American flour-beetle (Tribolium confusum) of L6 larva stage. The age of the larvae is determined on the basis of the average larva weight (=1.81±0.37 mg/larva) See Sokoloff 1972.
Two replicates are used for each concentration (10 individuals per replicate). The insecticidal effect of the test compounds is evaluated after 96 hours on the basis of the percental ratio of killed larvae.

in vivo = experiment: in vivo; set-up: species or system rats; conditions: rat, po
Source text: The acute toxicity data (p.o.) of the test compounds are disclosed in Table IV.

[4] = system: house fly (Musca domestica); experiment: whole plant or invertebrate; assay type: in vivo
Method: From the compound according to Example 1 a series of dilution is prepared in acetone; concentration: 0.6, 0.2, 0.067 and 0.022% by weight, respectively. From these solutions 0.5 ml each is poured dropwise onto Whatman No. 1 filter paper discs (diameter 90 mm) placed in Petri-dishes. The discs were previously treated with 0.5 ml of a 0.04% piperonyl butoxide solution. After the evaporation of the acetone 3-5 days' old house fly (Musca domestica) imagos being under slight carbon dioxide narcosis are placed onto the filter paper discs. The test is evaluated as described in Example 16.

rats = conditions: p.o.; cited from earlier work
[5] = concentration of active ingredient 0.0016%
[6] = concentration of active ingredient 0.008%
[7] = concentration of active ingredient 0.04%
[8] = concentration of active ingredient 0.2%
[9] = concentration of active ingredient 1%
[10] = female rats, p.o., read-out: acute toxicity (p.o.) on female rats
[11] = male rats, p.o., read-out: acute toxicity (p.o.) on male rats

Q: Which results are given for `CNC(=O)Oc1cccc2c1OC(C)(C)C2` [Carbofuran, 2,3-dihydro-2,2-dimethyl-benzofurane-7-yl-methyl-carbamate, reference compound]?
A: mortality % [1, 5]: 0%; mortality % [1, 6]: 93%; mortality % [1, 7]: 100%; mortality % [1, 8]: 100%; mortality % [1, 9]: 100%; mortality ([2]; 24 hours, killed and paralyzed): 53%; mortality at 0.0016 % ([2]; concentration of active ingredient 0.0016%, 24 hours, killed and paralyzed, read-out: mortality %): 43%; mortality at 0.04 % ([2]; concentration of active ingredient 0.04%, 24 hours, killed and paralyzed, read-out: mortality %): 67%; mortality at 0.2 % ([2]; concentration of active ingredient 0.2%, 24 hours, killed and paralyzed, read-out: mortality %): 100%; mortality at 1 % ([2]; concentration of active ingredient 1%, 24 hours, killed and paralyzed, read-out: mortality %): 100%; mortality at 0.03 µg/larva [3]: 30%; mortality at 0.16 µg/larva [3]: 70%; mortality at 0.5 µg/larva [3]: 100%; mortality at 1.5 µg/larva [3]: 100%; mortality at 4.5 µg/larva [3]: 100%; mortality at 13 µg/larva [3]: 100%; mortality at 40.5 µg/larva [3]: 100%; LD50 (in vivo; acute toxicity (p.o.) on male rats): 8 to 14 mg/kg; mortality at 0.022 % ([4]; concentration of active ingredient 0.022%, evaluated as Example 16 (24 hours), read-out: mortality %): 71%; mortality at 0.067 % ([4]; concentration of active ingredient 0.067%, evaluated as Example 16 (24 hours), read-out: mortality %): 100%; mortality at 0.2 % ([4]; concentration of active ingredient 0.2%, evaluated as Example 16 (24 hours), read-out: mortality %): 100%; mortality at 0.6 % ([4]; concentration of active ingredient 0.6%, evaluated as Example 16 (24 hours), read-out: mortality %): 100%; acute toxicity LD50 (rats): 8 to 10 mg/kg

Q: What does the source list for `CNC(=O)Oc1ccccc1C1OCCO1` [Dioxacarb, reference compound]?
A: mortality % [1, 5]: 0%; mortality % [1, 6]: 30%; mortality % [1, 7]: 43%; mortality % [1, 8]: 93%; mortality % [1, 9]: 100%; mortality at 0.0016 % ([2]; 24 h): 0%; mortality at 0.04 % ([2]; 24 h): 17%; mortality at 0.08 % ([2]; 24 h): 10%; mortality at 0.2 % ([2]; 24 h): 90%; mortality at 1 % ([2]; 24 h): 100%; mortality at 0.03 µg/larva [3]: 25%; mortality at 0.16 µg/larva [3]: 40%; mortality at 0.5 µg/larva [3]: 45%; mortality at 1.5 µg/larva [3]: 50%; mortality at 4.5 µg/larva [3]: 50%; mortality at 13 µg/larva [3]: 55%; mortality at 40.5 µg/larva [3]: 80%

Q: What does the source list for `CN(CN1CCOCC1)C(=O)Oc1cccc2c1OC(C)(C)C2` [Example 1, 2,3-dihydro-2,2-dimethyl-7-benzofuranyl-N-methyl-N-(N'-morpholinyl-methyl)-carbamate]?
A: mortality % [1, 5]: 0%; mortality % [1, 6]: 50%; mortality % [1, 7]: 87%; mortality % [1, 8]: 97%; mortality % [1, 9]: 100%; mortality at 0.0016 % ([2]; 24 h): 30%; mortality at 0.04 % ([2]; 24 h): 43%; mortality at 0.08 % ([2]; 24 h): 40%; mortality at 0.2 % ([2]; 24 h): 80%; mortality at 1 % ([2]; 24 h): 100%; mortality at 0.03 µg/larva [3]: 75%; mortality at 0.16 µg/larva [3]: 80%; mortality at 0.5 µg/larva [3]: 90%; mortality at 1.5 µg/larva [3]: 90%; mortality at 4.5 µg/larva [3]: 95%; mortality at 13 µg/larva [3]: 100%; mortality at 40.5 µg/larva [3]: 100%; LD50 (in vivo; [10]): 50 mg/kg; LD50 (in vivo; [11]): 50 mg/kg; mortality at 0.022 % ([4]; 24 h): 32%; mortality at 0.067 % ([4]; 24 h): 78%; mortality at 0.2 % ([4]; 24 h): 100%; mortality at 0.6 % ([4]; 24 h): 100%

Q: What does the source list for `CC(C)NCN(C)C(=O)Oc1cccc2c1OC(C)(C)C2` [Example 2, 2,3-dihydro-2,2-dimethyl-7-benzofuranyl-N-methyl-N-/isopropyl-amino-methyl/-carbamate]?
A: mortality % [1, 5]: 0%; mortality % [1, 6]: 40%; mortality % [1, 7]: 60%; mortality % [1, 8]: 100%; mortality % [1, 9]: 100%; mortality at 0.0016 % ([2]; 24 h): 0%; mortality at 0.04 % ([2]; 24 h): 30%; mortality at 0.08 % ([2]; 24 h): 10%; mortality at 0.2 % ([2]; 24 h): 67%; mortality at 1 % ([2]; 24 h): 90%

Q: Which mortality % [1, 5] does the source give for `CCOC(=O)CCN(CN(C)C(=O)Oc1cccc2c1OC(C)(C)C2)C(C)C` [Example 3, 2,3-dihydro-2,2-dimethyl-7-benzofuranyl-N-methyl-N-[(N'-isopropyl)-N'-(β-carbethoxy-ethyl)-amino-methyl]-carbamate] here?
A: 0%

Q: And the mortality % [1, 6]?
A: 27%

Q: And the mortality % [1, 7]?
A: 53%

Q: What about the mortality % [1, 8] of the same compound?
A: 80%

Q: And the mortality % [1, 9]?
A: 97%

Q: And the mortality at 0.0016 % ([2]; 24 h)?
A: 0%

Q: What about the mortality at 0.04 % ([2]; 24 h) of the same compound?
A: 40%

Q: And the mortality at 0.08 % ([2]; 24 h)?
A: 33%

Q: What about the mortality at 0.2 % ([2]; 24 h) of the same compound?
A: 70%

Q: And the mortality at 1 % ([2]; 24 h)?
A: 97%

Q: What about the LD50 (in vivo; [10]) of the same compound?
A: 31.8 mg/kg

Q: And the LD50 (in vivo; [11])?
A: 23.3 mg/kg

Q: With `COc1ccc(CCNCN(C)C(=O)Oc2cccc3c2OC(C)(C)C3)cc1OC` [Example 4, 2,3-dihydro-2,2-dimethyl-7-benzofuranyl-N-methyl-N-[3,4-(dimethoxy)-phenylethyl]-amino-methyl-carbamate] as the compound, how does the mortality % [1, 5] read?
A: 0%

Q: And the mortality % [1, 6]?
A: 37%

Q: And the mortality % [1, 7]?
A: 70%

Q: And the mortality % [1, 8]?
A: 87%

Q: And the mortality % [1, 9]?
A: 100%

Q: What about the mortality at 0.0016 % ([2]; 24 h) of the same compound?
A: 0%

Q: And the mortality at 0.04 % ([2]; 24 h)?
A: 37%

Q: And the mortality at 0.08 % ([2]; 24 h)?
A: 20%

Q: And the mortality at 0.2 % ([2]; 24 h)?
A: 83%

Q: And the mortality at 1 % ([2]; 24 h)?
A: 100%
